The target in experiment [1] is T1, homoserine kinase (CglThrB-WT) (Corynebacterium glutamicum, UniProt P07128).
T1 sequence (P07128 2-309): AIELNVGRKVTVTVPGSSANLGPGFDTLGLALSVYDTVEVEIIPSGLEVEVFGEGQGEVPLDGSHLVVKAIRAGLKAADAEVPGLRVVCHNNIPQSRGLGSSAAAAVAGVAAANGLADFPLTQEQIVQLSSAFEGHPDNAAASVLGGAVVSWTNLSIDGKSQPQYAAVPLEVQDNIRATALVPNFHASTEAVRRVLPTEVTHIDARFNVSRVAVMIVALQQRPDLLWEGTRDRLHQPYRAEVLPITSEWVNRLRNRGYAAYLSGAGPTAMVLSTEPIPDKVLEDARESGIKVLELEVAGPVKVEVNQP
Briefly: steady-state enzyme kinetics, ADP colorimetric assay. Type of experiment: biochemical.

Experiment [2] concerns the target T2, homoserine kinase (CglThrB-A20G) (Corynebacterium glutamicum, UniProt P07128, A20G).
T2 sequence (P07128 1-309 A20G): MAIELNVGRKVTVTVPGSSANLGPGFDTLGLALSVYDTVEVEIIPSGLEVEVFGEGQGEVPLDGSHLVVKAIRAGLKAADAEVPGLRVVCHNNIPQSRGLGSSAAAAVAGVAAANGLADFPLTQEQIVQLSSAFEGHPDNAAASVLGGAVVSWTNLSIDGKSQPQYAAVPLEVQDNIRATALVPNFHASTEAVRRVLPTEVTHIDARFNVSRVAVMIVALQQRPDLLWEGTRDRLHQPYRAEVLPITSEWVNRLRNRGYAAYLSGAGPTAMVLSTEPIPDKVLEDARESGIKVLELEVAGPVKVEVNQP
Described as above. The format is biochemical.

Regarding `C[C@@H](O)[C@H](N)C(=O)O` [L-threonine], the Ki is 4.73 mM in experiment [1] and 25.2 mM in experiment [2].

As usually defined, the Ki is the equilibrium dissociation constant of an inhibitor or competing ligand from its target.

For the origin of these results see publication PMC6045374 (ACS Omega, 2018).
